# From patent US20090304692A1, “TRIAZINE COMPOUNDS AS PI3 KINASE AND MTOR INHIBITORS” (Wyeth, priority 2008, published 2009)
# Like-named read-outs stand apart in the source and are kept apart here.
# Key:
# [1] = biological target: PI3K-α (Homo sapiens, UniProt P42336); test: PI3K-alpha fluorescence polarization assay; details: read-out: IC50 PI3Kα
# [2] = biological target: Human mTOR (FLAG-TOR) (Homo sapiens, UniProt P42345); test: mTOR kinase assay (DELFIA format, purified enzyme); assay type: biochemical; details: read-out: IC50 mTOR
# [3] = biological target: PI3K-γ (Homo sapiens, UniProt P48736); test: PI3K-gamma fluorescence polarization assay
# Sequence of PI3K-γ (P48736 whole entry, species assumed): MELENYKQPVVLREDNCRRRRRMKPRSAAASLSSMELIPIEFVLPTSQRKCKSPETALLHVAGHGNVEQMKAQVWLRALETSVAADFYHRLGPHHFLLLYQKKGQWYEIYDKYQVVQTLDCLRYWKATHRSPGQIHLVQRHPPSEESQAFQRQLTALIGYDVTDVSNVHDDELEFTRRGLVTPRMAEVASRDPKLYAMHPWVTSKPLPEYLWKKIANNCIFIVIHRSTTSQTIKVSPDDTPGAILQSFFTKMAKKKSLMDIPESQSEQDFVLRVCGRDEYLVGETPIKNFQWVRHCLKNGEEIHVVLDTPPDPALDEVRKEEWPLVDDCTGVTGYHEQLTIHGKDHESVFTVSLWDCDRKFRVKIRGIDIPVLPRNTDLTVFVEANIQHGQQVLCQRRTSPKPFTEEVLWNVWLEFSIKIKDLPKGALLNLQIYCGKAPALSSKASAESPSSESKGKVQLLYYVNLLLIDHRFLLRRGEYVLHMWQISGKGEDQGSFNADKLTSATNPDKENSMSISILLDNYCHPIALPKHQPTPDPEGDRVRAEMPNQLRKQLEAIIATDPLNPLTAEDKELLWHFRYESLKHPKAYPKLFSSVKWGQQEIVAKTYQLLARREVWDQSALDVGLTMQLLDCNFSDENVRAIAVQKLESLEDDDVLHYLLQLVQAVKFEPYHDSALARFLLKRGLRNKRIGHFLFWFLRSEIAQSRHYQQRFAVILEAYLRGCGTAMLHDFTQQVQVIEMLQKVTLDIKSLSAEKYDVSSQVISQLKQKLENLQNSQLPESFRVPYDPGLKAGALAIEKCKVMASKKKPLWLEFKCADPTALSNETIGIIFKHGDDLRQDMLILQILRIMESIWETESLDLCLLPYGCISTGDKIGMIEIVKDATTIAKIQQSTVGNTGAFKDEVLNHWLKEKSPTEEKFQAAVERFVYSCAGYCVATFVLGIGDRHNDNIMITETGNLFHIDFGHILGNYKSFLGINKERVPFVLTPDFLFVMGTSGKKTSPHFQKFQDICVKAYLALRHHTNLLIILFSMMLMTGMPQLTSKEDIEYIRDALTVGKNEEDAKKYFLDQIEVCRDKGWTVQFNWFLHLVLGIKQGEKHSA
# Sequence of Human mTOR (FLAG-TOR) (P42345 1360-2549 limits assumed): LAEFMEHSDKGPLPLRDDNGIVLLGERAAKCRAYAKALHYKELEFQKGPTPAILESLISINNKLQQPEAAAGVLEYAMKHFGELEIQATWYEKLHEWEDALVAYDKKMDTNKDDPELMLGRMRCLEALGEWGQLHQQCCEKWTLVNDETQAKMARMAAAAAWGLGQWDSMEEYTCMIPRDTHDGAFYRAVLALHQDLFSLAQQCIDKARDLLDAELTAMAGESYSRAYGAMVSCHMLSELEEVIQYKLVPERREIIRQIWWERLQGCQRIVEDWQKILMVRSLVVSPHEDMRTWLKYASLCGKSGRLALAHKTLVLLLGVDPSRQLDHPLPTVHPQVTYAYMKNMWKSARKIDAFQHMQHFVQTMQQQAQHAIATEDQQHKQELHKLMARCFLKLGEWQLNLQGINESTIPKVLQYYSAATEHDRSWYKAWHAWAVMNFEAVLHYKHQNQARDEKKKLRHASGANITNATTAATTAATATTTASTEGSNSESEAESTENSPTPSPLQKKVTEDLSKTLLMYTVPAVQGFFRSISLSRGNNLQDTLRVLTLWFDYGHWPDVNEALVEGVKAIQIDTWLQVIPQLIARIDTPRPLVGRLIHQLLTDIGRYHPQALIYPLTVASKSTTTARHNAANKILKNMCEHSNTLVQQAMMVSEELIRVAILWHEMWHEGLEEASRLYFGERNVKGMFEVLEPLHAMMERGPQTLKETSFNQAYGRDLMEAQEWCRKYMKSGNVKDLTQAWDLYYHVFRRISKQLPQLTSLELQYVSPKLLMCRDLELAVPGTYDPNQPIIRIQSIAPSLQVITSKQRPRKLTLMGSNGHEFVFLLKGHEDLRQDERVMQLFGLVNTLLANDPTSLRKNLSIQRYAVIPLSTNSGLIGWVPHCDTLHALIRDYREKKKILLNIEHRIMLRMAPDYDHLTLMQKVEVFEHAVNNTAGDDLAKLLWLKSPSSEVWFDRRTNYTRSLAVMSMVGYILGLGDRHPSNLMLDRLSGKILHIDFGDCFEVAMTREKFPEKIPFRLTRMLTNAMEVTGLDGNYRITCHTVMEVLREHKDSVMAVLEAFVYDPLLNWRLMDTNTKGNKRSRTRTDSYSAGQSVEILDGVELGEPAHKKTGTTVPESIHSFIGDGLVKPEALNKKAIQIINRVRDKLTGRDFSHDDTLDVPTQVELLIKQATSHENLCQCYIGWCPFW
# Sequence of PI3K-α (P42336 whole entry, species assumed): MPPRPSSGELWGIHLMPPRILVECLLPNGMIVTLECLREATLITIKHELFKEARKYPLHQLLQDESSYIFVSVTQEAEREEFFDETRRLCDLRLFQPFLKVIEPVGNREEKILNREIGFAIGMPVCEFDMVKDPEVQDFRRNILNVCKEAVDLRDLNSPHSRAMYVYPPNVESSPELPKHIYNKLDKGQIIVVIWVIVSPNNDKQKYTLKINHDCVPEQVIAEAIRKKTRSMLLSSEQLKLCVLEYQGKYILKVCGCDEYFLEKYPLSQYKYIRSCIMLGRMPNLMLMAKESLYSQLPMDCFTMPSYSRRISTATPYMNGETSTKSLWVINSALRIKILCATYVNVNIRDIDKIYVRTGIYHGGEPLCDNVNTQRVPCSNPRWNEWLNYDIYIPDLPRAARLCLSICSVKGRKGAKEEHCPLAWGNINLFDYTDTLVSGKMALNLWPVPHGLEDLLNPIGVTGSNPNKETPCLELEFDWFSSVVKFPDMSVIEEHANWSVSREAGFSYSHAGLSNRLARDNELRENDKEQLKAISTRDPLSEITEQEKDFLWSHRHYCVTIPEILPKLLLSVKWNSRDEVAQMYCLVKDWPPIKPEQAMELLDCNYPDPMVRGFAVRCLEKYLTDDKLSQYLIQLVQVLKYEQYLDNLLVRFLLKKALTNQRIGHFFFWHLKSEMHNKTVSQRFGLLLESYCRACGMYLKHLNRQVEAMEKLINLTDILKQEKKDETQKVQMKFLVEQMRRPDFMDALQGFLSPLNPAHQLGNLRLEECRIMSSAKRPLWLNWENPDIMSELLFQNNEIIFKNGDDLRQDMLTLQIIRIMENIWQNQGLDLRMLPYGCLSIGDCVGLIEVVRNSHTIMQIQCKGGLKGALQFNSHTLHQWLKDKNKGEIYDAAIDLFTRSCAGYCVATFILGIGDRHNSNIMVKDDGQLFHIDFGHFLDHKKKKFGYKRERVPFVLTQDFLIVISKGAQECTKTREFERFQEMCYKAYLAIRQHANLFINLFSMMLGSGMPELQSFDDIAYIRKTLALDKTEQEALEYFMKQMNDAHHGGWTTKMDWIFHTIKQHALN
# Sequence of PI3K-α (P27986 whole entry partner, species assumed): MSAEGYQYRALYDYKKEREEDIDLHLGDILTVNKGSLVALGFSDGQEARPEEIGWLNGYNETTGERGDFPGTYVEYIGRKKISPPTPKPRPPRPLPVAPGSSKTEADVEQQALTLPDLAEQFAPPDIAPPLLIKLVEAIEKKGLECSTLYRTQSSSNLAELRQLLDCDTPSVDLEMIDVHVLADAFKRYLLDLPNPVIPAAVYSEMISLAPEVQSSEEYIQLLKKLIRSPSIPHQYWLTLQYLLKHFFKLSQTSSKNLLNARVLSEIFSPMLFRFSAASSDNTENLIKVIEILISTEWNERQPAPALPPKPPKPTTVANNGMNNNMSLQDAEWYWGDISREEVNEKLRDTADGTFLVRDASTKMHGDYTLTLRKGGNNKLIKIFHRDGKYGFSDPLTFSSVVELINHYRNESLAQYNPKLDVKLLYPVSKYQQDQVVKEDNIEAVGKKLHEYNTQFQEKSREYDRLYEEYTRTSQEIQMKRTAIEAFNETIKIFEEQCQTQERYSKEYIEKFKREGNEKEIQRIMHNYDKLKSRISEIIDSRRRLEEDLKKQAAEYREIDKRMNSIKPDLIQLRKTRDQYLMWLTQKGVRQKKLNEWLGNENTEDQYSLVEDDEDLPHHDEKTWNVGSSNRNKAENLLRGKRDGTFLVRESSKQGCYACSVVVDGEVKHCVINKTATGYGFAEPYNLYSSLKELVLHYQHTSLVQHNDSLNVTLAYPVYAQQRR
IC50 [1] [nM],IC50 [2] [nM],IC50 ([3]; read-out: IC50 PI3Kγ) [nM],IC50 [3] [nM],SMILES
350,22,744,,"COC(=O)c1ccc(NC(=O)Nc2ccc(-c3nc(N4CCCC4)nc(N4CCOCC4)n3)cc2)cc1 [Example 594, methyl 4-({[4-(4-morpholin-4-yl-6-pyrrolidin-1-yl-1,3,5-triazin-2-yl)phenyl]carbamoyl}amino)benzoate]"
47.3,590,296,,"CC(C)N1CCN(C(=O)c2ccc(NC(=O)Nc3ccc(-c4nc(N5CCOCC5)nc(N5CCCN(C(C)C)CC5)n4)cc3)cc2)CC1 [Example 663, 1-(4-{4-[4-(1-methylethyl)-1,4-diazepan-1-yl]-6-morpholin-4-yl-1,3,5-triazin-2-yl}phenyl)-3-(4-{[4-(1-methylethyl)piperazin-1-yl]carbonyl}phenyl)urea]"
7220,2350,,> 10000,"Nc1ccc(-c2nc(N3CCOCC3)nc(N3CCC4(CC3)OCCO4)n2)cc1 [Example 129, 4-[4-(1,4-dioxa-8-azaspiro[4.5]dec-8-yl)-6-morpholin-4-yl-1,3,5-triazin-2-yl]aniline]"
231,27,468,,"CCCC1CCN(C(=O)c2ccc(NC(=O)Nc3ccc(-c4nc(N5CCOC[C@@H]5C)nc(N5CCOC[C@@H]5C)n4)cc3)cc2)CC1 [Example 636, 1-(4-{4,6-bis[(3S)-3-methylmorpholin-4-yl]-1,3,5-triazin-2-yl}phenyl)-3-{4-[(4-propylpiperidin-1-yl)carbonyl]phenyl}urea]"
41.5,20,265,,"CC(=O)NC1CCN(c2nc(-c3ccc(NC(=O)Nc4ccncc4)cc3)nc(N3CCOCC3)n2)CC1 [Example 658, N-[1-(4-morpholin-4-yl-6-{4-[(pyridin-4-ylcarbamoyl)amino]phenyl}-1,3,5-triazin-2-yl)piperidin-4-yl]acetamide]"
71,445,284,,"CCCCN1CCN(C(=O)c2ccc(NC(=O)Nc3ccc(-c4nc(N5CCOCC5)nc(N5CCCN(C(C)C)CC5)n4)cc3)cc2)CC1 [Example 665, 1-{4-[(4-butylpiperazin-1-yl)carbonyl]phenyl}-3-(4-{4-[4-(1-methylethyl)-1,4-diazepan-1-yl]-6-morpholin-4-yl-1,3,5-triazin-2-yl}phenyl)urea]"
1520,460,7500,,"C[C@H]1COCCN1c1nc(-c2ccc(NC(=O)NC3CCN(C)CC3)cc2)nc(N2CCOCC2)n1 [Example 99, 1-(4-{4-[(3S)-3-methylmorpholin-4-yl]-6-morpholin-4-yl-1,3,5-triazin-2-yl}phenyl)-3-(1-methylpiperidin-4-yl)urea]"

SMILES,IC50 [1] [nM],IC50 [2] [nM],IC50 ([3]; read-out: IC50 PI3Kγ) [nM],IC50 [3] [nM]
"O=C(Nc1ccncc1)Nc1ccc(-c2nc(N3CCOCC3)nc(N3C4COCC3[C@H](O)C4)n2)cc1 (stereo partly drawn) [Example 820, 1-(4-{4-[(6R)-6-hydroxy-3-oxa-8-azabicyclo[3.2.1]oct-8-yl]-6-morpholin-4-yl-1,3,5-triazin-2-yl}phenyl)-3-pyridin-4-ylurea]",6.1,0.515,67,
"O=C(Nc1ccc(-c2nc(N3CCOCC3)nc(N3C4CCC3COC4)n2)cc1)Nc1ccnnc1 [Example 483, 1-{4-[4-morpholin-4-yl-6-(3-oxa-8-azabicyclo[3.2.1]oct-8-yl)-1,3,5-triazin-2-yl]phenyl}-3-pyridazin-4-ylurea]",28.5,1.55,150,
"O=C(Nc1ccncc1)Nc1ccc(-c2nc(N3CCOCC3)nc(N3C4COCC(O)C3C4)n2)cc1 (stereo not drawn) [Example 480, 1-{4-[4-(5-hydroxy-3-oxa-7-azabicyclo[4.1.1]oct-7-yl)-6-morpholin-4-yl-1,3,5-triazin-2-yl]phenyl}-3-pyridin-4-ylurea]",13,2.9,53,
